Measurements from the NIST ThermoML archive (doi:10.1021/je700055p).
± gives the expanded uncertainty stated by the source.

Assay: relative permittivity at various frequencies (dimensionless); xn = mol fraction of the nth substance listed
Settings: 101.3 kPa, Liquid, Frequency=1 MHz, Coaxial cylinder capacitor

**Q.** For `CC#N` [acetonitrile] + O, which relative permittivity (288.15 K, x1 = 0.0465) is on record?
**A.** 78.61 ± 0.35

**Q.** And the relative permittivity (288.15 K, x1 = 0.0988)?
**A.** 73.85 ± 0.33

**Q.** What about the relative permittivity (288.15 K, x1 = 0.158) of the same molecule?
**A.** 68.68 ± 0.31

**Q.** And the relative permittivity (288.15 K, x1 = 0.226)?
**A.** 63.44 ± 0.29

**Q.** What about the relative permittivity (288.15 K, x1 = 0.305) of the same molecule?
**A.** 58.11 ± 0.26

**Q.** What about the relative permittivity (288.15 K, x1 = 0.397) of the same molecule?
**A.** 53.1 ± 0.24

**Q.** What about the relative permittivity (288.15 K, x1 = 0.506) of the same molecule?
**A.** 48.72 ± 0.22

**Q.** What about the relative permittivity (288.15 K, x1 = 0.637) of the same molecule?
**A.** 44.82 ± 0.2

**Q.** What about the relative permittivity (288.15 K, x1 = 0.798) of the same molecule?
**A.** 41.05 ± 0.18

**Q.** And the relative permittivity (288.15 K, x1 = 1)?
**A.** 37.52 ± 0.17

**Q.** And the relative permittivity (293.15 K, x1 = 0.0465)?
**A.** 76.8 ± 0.34

**Q.** And the relative permittivity (293.15 K, x1 = 0.0988)?
**A.** 72.05 ± 0.32

**Q.** What about the relative permittivity (293.15 K, x1 = 0.158) of the same molecule?
**A.** 67.21 ± 0.3

**Q.** What about the relative permittivity (293.15 K, x1 = 0.226) of the same molecule?
**A.** 62 ± 0.27

**Q.** And the relative permittivity (293.15 K, x1 = 0.305)?
**A.** 56.92 ± 0.25

**Q.** What about the relative permittivity (293.15 K, x1 = 0.397) of the same molecule?
**A.** 52.2 ± 0.22

**Q.** What about the relative permittivity (293.15 K, x1 = 0.506) of the same molecule?
**A.** 47.77 ± 0.21

**Q.** What about the relative permittivity (293.15 K, x1 = 0.637) of the same molecule?
**A.** 43.92 ± 0.19

**Q.** And the relative permittivity (293.15 K, x1 = 0.798)?
**A.** 40.39 ± 0.17

**Q.** What about the relative permittivity (293.15 K, x1 = 1) of the same molecule?
**A.** 36.62 ± 0.16

**Q.** And the relative permittivity (298.15 K, x1 = 0.0465)?
**A.** 74.92 ± 0.33

**Q.** And the relative permittivity (298.15 K, x1 = 0.0988)?
**A.** 70.49 ± 0.31

**Q.** And the relative permittivity (298.15 K, x1 = 0.158)?
**A.** 65.57 ± 0.29

**Q.** And the relative permittivity (298.15 K, x1 = 0.226)?
**A.** 60.61 ± 0.27

**Q.** What about the relative permittivity (298.15 K, x1 = 0.305) of the same molecule?
**A.** 55.69 ± 0.24

**Q.** And the relative permittivity (298.15 K, x1 = 0.397)?
**A.** 51.05 ± 0.22

**Q.** What about the relative permittivity (298.15 K, x1 = 0.506) of the same molecule?
**A.** 46.83 ± 0.2

**Q.** What about the relative permittivity (298.15 K, x1 = 0.637) of the same molecule?
**A.** 43.1 ± 0.19

**Q.** And the relative permittivity (298.15 K, x1 = 0.798)?
**A.** 39.41 ± 0.17

**Q.** What about the relative permittivity (298.15 K, x1 = 1) of the same molecule?
**A.** 35.88 ± 0.16

**Q.** And the relative permittivity (303.15 K, x1 = 0.0465)?
**A.** 73.36 ± 0.32

**Q.** And the relative permittivity (303.15 K, x1 = 0.0988)?
**A.** 68.85 ± 0.3

**Q.** What about the relative permittivity (303.15 K, x1 = 0.158) of the same molecule?
**A.** 64.22 ± 0.28

**Q.** What about the relative permittivity (303.15 K, x1 = 0.226) of the same molecule?
**A.** 59.3 ± 0.26

**Q.** What about the relative permittivity (303.15 K, x1 = 0.305) of the same molecule?
**A.** 54.58 ± 0.24

**Q.** And the relative permittivity (303.15 K, x1 = 0.397)?
**A.** 50.07 ± 0.22

**Q.** What about the relative permittivity (303.15 K, x1 = 0.506) of the same molecule?
**A.** 45.89 ± 0.2

**Q.** And the relative permittivity (303.15 K, x1 = 0.637)?
**A.** 42.2 ± 0.18

**Q.** And the relative permittivity (303.15 K, x1 = 0.798)?
**A.** 38.67 ± 0.17

**Q.** And the relative permittivity (303.15 K, x1 = 1)?
**A.** 35.15 ± 0.15

**Q.** What about the relative permittivity (308.15 K, x1 = 0.0465) of the same molecule?
**A.** 71.55 ± 0.32

**Q.** What about the relative permittivity (308.15 K, x1 = 0.0988) of the same molecule?
**A.** 67.33 ± 0.29

**Q.** And the relative permittivity (308.15 K, x1 = 0.158)?
**A.** 62.78 ± 0.28

**Q.** And the relative permittivity (308.15 K, x1 = 0.226)?
**A.** 58.07 ± 0.25

**Q.** What about the relative permittivity (308.15 K, x1 = 0.305) of the same molecule?
**A.** 53.43 ± 0.23

**Q.** And the relative permittivity (308.15 K, x1 = 0.397)?
**A.** 48.88 ± 0.21

**Q.** And the relative permittivity (308.15 K, x1 = 0.506)?
**A.** 44.99 ± 0.19

**Q.** What about the relative permittivity (308.15 K, x1 = 0.637) of the same molecule?
**A.** 41.38 ± 0.18

**Q.** And the relative permittivity (308.15 K, x1 = 0.798)?
**A.** 37.85 ± 0.16

**Q.** And the relative permittivity (308.15 K, x1 = 1)?
**A.** 34.45 ± 0.15

**Q.** What about the relative permittivity (313.15 K, x1 = 0.0465) of the same molecule?
**A.** 70.04 ± 0.31

**Q.** What about the relative permittivity (313.15 K, x1 = 0.0988) of the same molecule?
**A.** 65.9 ± 0.29

**Q.** And the relative permittivity (313.15 K, x1 = 0.158)?
**A.** 61.26 ± 0.27

**Q.** What about the relative permittivity (313.15 K, x1 = 0.226) of the same molecule?
**A.** 56.79 ± 0.25

**Q.** What about the relative permittivity (313.15 K, x1 = 0.305) of the same molecule?
**A.** 52.28 ± 0.23

**Q.** And the relative permittivity (313.15 K, x1 = 0.397)?
**A.** 47.98 ± 0.21

**Q.** And the relative permittivity (313.15 K, x1 = 0.506)?
**A.** 44.12 ± 0.19

**Q.** What about the relative permittivity (313.15 K, x1 = 0.637) of the same molecule?
**A.** 40.64 ± 0.18

**Q.** And the relative permittivity (313.15 K, x1 = 0.798)?
**A.** 37.11 ± 0.16

**Q.** And the relative permittivity (313.15 K, x1 = 1)?
**A.** 33.75 ± 0.15

**Q.** And the relative permittivity (318.15 K, x1 = 0.0465)?
**A.** 68.44 ± 0.3

**Q.** What about the relative permittivity (318.15 K, x1 = 0.0988) of the same molecule?
**A.** 64.34 ± 0.28

**Q.** What about the relative permittivity (318.15 K, x1 = 0.158) of the same molecule?
**A.** 59.91 ± 0.26

**Q.** What about the relative permittivity (318.15 K, x1 = 0.226) of the same molecule?
**A.** 55.44 ± 0.25

**Q.** And the relative permittivity (318.15 K, x1 = 0.305)?
**A.** 51.18 ± 0.22

**Q.** And the relative permittivity (318.15 K, x1 = 0.397)?
**A.** 46.87 ± 0.21

**Q.** And the relative permittivity (318.15 K, x1 = 0.506)?
**A.** 43.18 ± 0.19

**Q.** What about the relative permittivity (318.15 K, x1 = 0.637) of the same molecule?
**A.** 39.74 ± 0.17

**Q.** And the relative permittivity (318.15 K, x1 = 0.798)?
**A.** 36.29 ± 0.16

**Q.** And the relative permittivity (318.15 K, x1 = 1)?
**A.** 33.01 ± 0.14

**Q.** And the relative permittivity (323.15 K, x1 = 0.0465)?
**A.** 66.84 ± 0.29

**Q.** And the relative permittivity (323.15 K, x1 = 0.0988)?
**A.** 62.99 ± 0.28

**Q.** What about the relative permittivity (323.15 K, x1 = 0.158) of the same molecule?
**A.** 58.6 ± 0.26

**Q.** What about the relative permittivity (323.15 K, x1 = 0.226) of the same molecule?
**A.** 54.13 ± 0.24

**Q.** And the relative permittivity (323.15 K, x1 = 0.305)?
**A.** 49.99 ± 0.22

**Q.** What about the relative permittivity (323.15 K, x1 = 0.397) of the same molecule?
**A.** 45.89 ± 0.2

**Q.** And the relative permittivity (323.15 K, x1 = 0.506)?
**A.** 42.28 ± 0.18

**Q.** What about the relative permittivity (323.15 K, x1 = 0.637) of the same molecule?
**A.** 38.84 ± 0.17

**Q.** What about the relative permittivity (323.15 K, x1 = 0.798) of the same molecule?
**A.** 35.39 ± 0.15

**Q.** What about the relative permittivity (323.15 K, x1 = 1) of the same molecule?
**A.** 32.36 ± 0.14

**Q.** What about the relative permittivity (328.15 K, x1 = 0.0465) of the same molecule?
**A.** 65.36 ± 0.29

**Q.** And the relative permittivity (328.15 K, x1 = 0.0988)?
**A.** 61.47 ± 0.27

**Q.** And the relative permittivity (328.15 K, x1 = 0.158)?
**A.** 57.29 ± 0.25

**Q.** And the relative permittivity (328.15 K, x1 = 0.226)?
**A.** 53.02 ± 0.23

**Q.** What about the relative permittivity (328.15 K, x1 = 0.305) of the same molecule?
**A.** 48.92 ± 0.21

**Q.** And the relative permittivity (328.15 K, x1 = 0.397)?
**A.** 44.9 ± 0.2

**Q.** What about the relative permittivity (328.15 K, x1 = 0.506) of the same molecule?
**A.** 41.38 ± 0.18

**Q.** And the relative permittivity (328.15 K, x1 = 0.637)?
**A.** 37.97 ± 0.17

**Q.** What about the relative permittivity (328.15 K, x1 = 0.798) of the same molecule?
**A.** 34.82 ± 0.15

**Q.** And the relative permittivity (328.15 K, x1 = 1)?
**A.** 31.62 ± 0.14

**Q.** And the relative permittivity (333.15 K, x1 = 0.0465)?
**A.** 63.85 ± 0.28

**Q.** What about the relative permittivity (333.15 K, x1 = 0.0988) of the same molecule?
**A.** 60.07 ± 0.26

**Q.** What about the relative permittivity (333.15 K, x1 = 0.158) of the same molecule?
**A.** 55.97 ± 0.24

**Q.** And the relative permittivity (333.15 K, x1 = 0.226)?
**A.** 51.79 ± 0.22

**Q.** And the relative permittivity (333.15 K, x1 = 0.305)?
**A.** 47.94 ± 0.2

**Q.** And the relative permittivity (333.15 K, x1 = 0.397)?
**A.** 43.92 ± 0.18

**Q.** And the relative permittivity (333.15 K, x1 = 0.506)?
**A.** 40.52 ± 0.17

**Q.** What about the relative permittivity (333.15 K, x1 = 0.637) of the same molecule?
**A.** 37.15 ± 0.15

**Q.** And the relative permittivity (333.15 K, x1 = 0.798)?
**A.** 34.08 ± 0.14

**Q.** What about the relative permittivity (333.15 K, x1 = 1) of the same molecule?
**A.** 31.05 ± 0.13
